Patent US20250008983A1, “COMPOSITIONS CONTAINING PEROXYACIDS TO CONTROL PATHOGEN GROWTH IN ANIMAL FEED AND RELATED METHODS” (KEMIN INDUSTRIES, INC., priority 2023, published 2025)
“And” between values parts separate entries of the source, which are not always exact repeats. Equal entries are not always repeated. Where two headings read alike, the source gives them in different places.

Assays:
Enterobacteriaceae = assay type: cell-based
Protocol: Materials and Method. Naturally contaminated layer feed was collected, ground, and mixed well prior to weighing. The ground feed was weighed and separated into 15 different bags, each containing 300 g. The product/prototype was accurately weighed at the needed dosage and adjusted to a total volume of 5 mL prior to adding into the 300 g of feed with a syringe and needle. Product/prototype was added in batches (i.e., 2, 2, and 1 mL separately) and mixed after each addition. Five mL of sterile water was added into the feed and served as the control. The treated feed samples were homogenized after treatment and kept at 25° C. until the day of enumeration.
TEC of the 15 samples were studied over a period of 22 days with enumeration interval at time points 0, 1 and 22 days. The effect of peroxy acid was neutralized at each time point prior to enumeration. At each time point, 20 mL of 0.1 M sodium thiosulphate was added into 10 g of each treated feed sample in a sterile bag. The mixture was mixed well and left to stand for 10 minutes. After 10 minutes, 70 mL of BPW was added to achieve 10^−1 dilution. The feed suspension was homogenously mixed and left to stand for 30 minutes. Subsequently, the feed suspension was serial diluted to appropriate dilutions for enumeration. 100 uL of the diluted samples were plated onto Violet Red Bile Glucose (VRBG; CM0485 from Oxoid) agar, prepared as per recommended by the supplier. An aliquot of 0.1 mL of the feed suspension was plated onto the agar at each dilution and incubated at 37° C. for 18-24 hours prior to enumeration. Plating was carried out in triplicates. If low TEC is expected, the sample size is increased to 1 mL by plating 300, 300 and 400 uL onto three plates in triplicates for lower detection limit (10 CFU/g). The diluted feed samples (at 10^−1 dilution factor) were kept at 37° C. for 18-24 hours for enrichment prior to streaking. A loopful of diluted feed suspension was streaked onto the VRBG agar and incubated at 37° C. for 18-24 hours to determine qualitatively the presence of Enterobacteriaceae for samples with undetectable TEC.

[1] = test system: S. enteriditis ATCC 13076; assay: Cell membrane permeability, crystal violet assay; assay type: cell-based, Salmonella enteriditis; conditions: n = 3, two hours at 37° C., ~pH 7, listed as PPA
Protocol: Method. Cell membrane permeability was determined through crystal violet assay where an alteration in the outer cell membrane will result in a higher uptake of the dye, indicating a greater membrane permeability. An overnight culture of S. enteriditis ATCC 13076 in TSBYE was harvested with centrifugation at 6700 rcf for five minutes at room temperature using Eppendorf Centrifuge 5810 R. Upon aspirating the TSBYE, the cell pellets were washed with phosphate-buffered saline (PBS, pH 7.4, 10 mM) twice and resuspended in PBS. Subsequently, 0.75 mL of the cell suspension was added to 0.75 mL of the treatment (prepared in 10 mM PBS) into a two-milliliters microcentrifuge tube and incubated for two hours at 37° C. with agitation at 150 rpm. Cells without any treatments served as the negative control. After two hours of incubation, the cells were again harvested with centrifugation at 6700 rcf for five mins. Subsequently, the cells were resuspended in 10 μg/mL of crystal violet solution prepared in PBS and incubated for another 15 minutes with agitation at 150 rpm. After incubation, the suspension was centrifuged at 13,000 rcf for 15 minutes. The absorbance of the supernatant in each tube was measured at 590 nm. The percentage of dye uptake was calculated based on the ratio of absorbance values (Equation 1).

[2] = Degradation of PPA in diluted/Opticurb solutions with mild steel; assay type: physicochemical; conditions: in contact with mild steel
Protocol: Degradation of PPA in diluted/Opticurb solutions with mild steel. In another study, the solution of PPA with different diluents was measured for the peroxyacid content initially and after 1 h of immersing the […] to test the PPA degradation rate.

[3] = test system: cocktail of four freeze-dried salmonella strains; assay: Peroxypropionic acid efficacy against Salmonella in swine feed; assay type: cell-based, Salmonella typhimurium, senftenberg, montevideo, enteritidis; conditions: for Average CFU/g feed / Log CFU/g / Total CFU: 4 h; for Total counts in CFU at 4 h (n = 5): swine mash feed, PPA with sodium phosphate buffer (9:1), ~pH 7-8, five replicate cells
From the text: Swine mash feed contains a bigger particle size of corn-soy matrix compared to broiler mash feed. Thus, it could pose a challenge to expect the same antimicrobial efficacy as observed in broiler feed due to the shielding effect. Therefore, to maximize the efficacy of the peroxypropionic acid on the swine feed, an optimal droplet size of the peroxypropionic acid was required to ensure maximum distribution of the product onto the feed. Swine mash feed of 25 g was taken in five individual bags and inoculated with 10 mg cocktail of four freeze-dried salmonella strains of Salmonella typhimurium ATCC 14028, Salmonella senftenberg ATCC 43485, Salmonella montevideo ATCC 8387, and Salmonella enteritidis ATCC 13076 in such a way that the total infection in the feed was ˜2 logs. Then, the feed samples were treated with peroxypropionic acid solution (˜17% PPA, 7% H2O2) and sodium phosphate buffer premix (9:1 ratio) at 1.5 kg/T, 3 Kg/T, and 6 Kg/T. The feed was enumerated completely for Salmonella count using EB plates at 4 h after treatment. Two untreated controls, NC-A and NC-B were kept as negative controls to represent the infection in the feed.

[4] = 2.5% ammonium hydroxide, after 15 minutes
[5] = 2.5% ammonium hydroxide, after 60 minutes
[6] = 5% sodium hydroxide, after 15 minutes
[7] = 5% sodium hydroxide, after 60 minutes
[8] = Sodium phosphate buffer, after 15 minutes
[9] = Sodium phosphate buffer, after 60 minutes

`CCC(=O)OO` [Perpropionic acid, perpropionic acid] gave a TEC (Enterobacteriaceae; 2.5 kg/ton, post treatment Day 1) of 2.41 log CFU/g, a TEC (Enterobacteriaceae; 2.5 kg/ton, post treatment Day 22) of under 1.00 log CFU/g and a TEC (Enterobacteriaceae; 2.5 kg/ton, pre-treatment Day 0) of 2.12 log CFU/g. For the same compound, the TEC (Enterobacteriaceae; 5.0 kg/ton, post treatment Day 1) was 2.47 log CFU/g, the TEC (Enterobacteriaceae; 5.0 kg/ton, post treatment Day 22) was 1.73 log CFU/g and the TEC (Enterobacteriaceae; 5.0 kg/ton, pre-treatment Day 0) was under 2.00 log CFU/g. It also gave a TEC (Enterobacteriaceae; 10.0 kg/ton, post treatment Day 1) of 2.19 log CFU/g, a TEC (Enterobacteriaceae; 10.0 kg/ton, post treatment Day 22) of under 1.00 log CFU/g and a TEC (Enterobacteriaceae; 10.0 kg/ton, pre-treatment Day 0) of under 2.00 log CFU/g. The “Dye uptake, Average ± SD” value ([1]; 1 kg/T) was 67.32% and 67.32 ± 0.80^d %, the “Dye uptake, Average ± SD” value ([1]; 2.5 kg/T) was 83.82% and 83.82 ± 0.78^e % and the “Dye uptake, Average ± SD” value ([1]; 5 kg/T) was 88.27% and 88.27 ± 0.42^f %. For the same compound, the PPA degradation/min ([2]; 2.5% ammonium hydroxide) was 1.10%, the “H2O2 (%)” value [2, 4] was 0.77% and the “PPA (%)” value [2, 4] was 2.03%. For the same compound, the “H2O2 (%)” value [2, 5] was 0.44%, the “PPA (%)” value [2, 5] was 0.97% and the PPA degradation/min ([2]; 5% sodium hydroxide) was 1.16%. The “H2O2 (%)” value [2, 6] was 0.9%, the “PPA (%)” value [2, 6] was 2.93% and the “H2O2 (%)” value [2, 7] was 0.37%. The “PPA (%)” value [2, 7] was 1.48%, the “H2O2 (%)” value [2, 8] was 1.67% and the “PPA (%)” value [2, 8] was 5.27%. For the same compound, the “H2O2 (%)” value [2, 9] was 1.6%, the “PPA (%)” value [2, 9] was 4.67% and the “PPA degradation after an hour” value ([2]; ammonium hydroxide (2.5% wt)) was 50%. The “PPA degradation after an hour” value ([2]; sodium hydroxide (5% wt.)) was 52%, the “PPA degradation after an hour” value ([2]; sodium phosphate buffer) was about 11% and the PPA degradation/min ([2]; sodium phosphate buffer) was 0.25%. For the same compound, the “Average CFU/g feed” value ([3]; 1.5 Kg/T) was 18 CFU/g feed, the “Log CFU/g” value ([3]; 1.5 Kg/T) was 1.26 Log CFU/g and the “Total CFU” value ([3]; 1.5 Kg/T) was 90 CFU. For the same compound, the “Average CFU/g feed” value ([3]; 3 Kg/T) was 0 CFU/g feed, the “Log CFU/g” value ([3]; 3 Kg/T) was 0.00 Log CFU/g and the “Total CFU” value ([3]; 3 Kg/T) was 0 CFU. For the same compound, the “Average CFU/g feed” value ([3]; 6 Kg/T) was 0 CFU/g feed, the “Log CFU/g” value ([3]; 6 Kg/T) was 0.00 Log CFU/g and the “Total CFU” value ([3]; 6 Kg/T) was 0 CFU. For the same compound, the “Total counts in CFU at 4 h (n = 5)” value ([3]; 1.5 Kg/T, listed as PPA) was 20 CFU and 10 CFU (2×) and 50 CFU and 0 CFU, the “Total counts in CFU at 4 h (n = 5)” value ([3]; 3 Kg/T) was 0 CFU and the “Total counts in CFU at 4 h (n = 5)” value ([3]; 6 Kg/T) was 0 CFU.
